Legend:
CYP2C19 [1] = target: T1, CYP2C19 (Homo sapiens, UniProt P33261); experiment: in vitro; conditions: microsomes
CYP3A4 [2] = target: T2, CYP3A4 (Homo sapiens, UniProt P08684); experiment: in vitro; conditions: microsomes
CYP2C19 [3] = target: T1, CYP2C19; conditions: microsomes, 10 µM
CYP2B6 [4] = target: T3, CYP2B6 (Homo sapiens, UniProt P20813); conditions: microsomes, 10 µM
T3 sequence (P20813 1-491): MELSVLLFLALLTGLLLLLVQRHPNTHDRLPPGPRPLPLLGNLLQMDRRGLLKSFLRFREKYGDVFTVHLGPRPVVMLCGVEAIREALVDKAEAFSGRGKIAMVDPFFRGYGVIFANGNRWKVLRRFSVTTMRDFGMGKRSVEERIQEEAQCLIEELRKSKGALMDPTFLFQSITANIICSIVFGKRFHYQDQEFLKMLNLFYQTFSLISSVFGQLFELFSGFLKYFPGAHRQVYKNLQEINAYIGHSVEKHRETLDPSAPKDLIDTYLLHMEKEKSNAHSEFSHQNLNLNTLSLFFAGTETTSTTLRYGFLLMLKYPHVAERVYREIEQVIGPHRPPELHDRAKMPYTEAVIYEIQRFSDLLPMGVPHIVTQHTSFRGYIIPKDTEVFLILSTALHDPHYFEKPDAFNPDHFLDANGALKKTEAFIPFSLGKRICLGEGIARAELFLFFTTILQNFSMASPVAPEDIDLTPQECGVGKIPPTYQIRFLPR

5-HT3 = target: T4, 5-HT3 (Homo sapiens, UniProt P46098); experiment: NIMH PDSP radioligand binding displacement, 5-HT3; conditions: radioligand [^3H]-LY278584
T4 sequence (P46098 24-478): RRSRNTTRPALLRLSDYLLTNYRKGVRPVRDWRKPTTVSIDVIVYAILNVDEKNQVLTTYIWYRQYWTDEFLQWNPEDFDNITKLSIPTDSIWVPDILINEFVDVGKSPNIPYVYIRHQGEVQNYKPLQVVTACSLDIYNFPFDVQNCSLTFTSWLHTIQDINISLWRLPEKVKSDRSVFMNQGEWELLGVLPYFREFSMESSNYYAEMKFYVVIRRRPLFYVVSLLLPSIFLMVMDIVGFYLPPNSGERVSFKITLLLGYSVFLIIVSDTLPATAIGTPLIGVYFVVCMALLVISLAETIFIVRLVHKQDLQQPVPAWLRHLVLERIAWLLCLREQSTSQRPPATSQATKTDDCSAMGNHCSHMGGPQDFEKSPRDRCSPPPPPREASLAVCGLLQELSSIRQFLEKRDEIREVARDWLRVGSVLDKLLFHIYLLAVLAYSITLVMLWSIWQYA
Source text: . To explore the off-target profile of the two compounds, the National Institute of Mental Health (NIMH) Psychoactive Drug Screening Program (PDSP) were utilized to assess in a broad-panel of GPCRs and monoamine transporters (Table 4). […]. [table]

hMDRI-MDCKII cells = experiment: MDCK-MDR1 membrane permeability and efflux; format: in vitro ADME
CYP3A4 [5] = target: T2, CYP3A4; conditions: microsomes, 10 µM
CYP2C8 [6] = target: T5, CYP2C8 (Homo sapiens, UniProt P10632); conditions: microsomes, 10 µM
T5 sequence (P10632 1-490): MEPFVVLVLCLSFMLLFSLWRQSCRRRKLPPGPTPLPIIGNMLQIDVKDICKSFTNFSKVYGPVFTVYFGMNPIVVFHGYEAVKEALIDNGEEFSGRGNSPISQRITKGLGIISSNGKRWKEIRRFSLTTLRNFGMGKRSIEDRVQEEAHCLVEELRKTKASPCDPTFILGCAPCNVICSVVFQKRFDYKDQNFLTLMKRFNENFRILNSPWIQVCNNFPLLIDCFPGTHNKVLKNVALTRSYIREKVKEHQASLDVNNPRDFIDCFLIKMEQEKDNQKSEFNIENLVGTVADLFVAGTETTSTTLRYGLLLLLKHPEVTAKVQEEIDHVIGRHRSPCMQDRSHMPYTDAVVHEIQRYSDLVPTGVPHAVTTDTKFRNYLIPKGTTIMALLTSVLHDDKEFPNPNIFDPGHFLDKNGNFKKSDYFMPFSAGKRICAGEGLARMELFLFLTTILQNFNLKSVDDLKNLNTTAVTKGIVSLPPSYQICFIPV

CYP2C9 [7] = target: T6, CYP2C9 (Homo sapiens, UniProt P11712); conditions: microsomes, 10 µM
CYP2D6 [8] = target: T7, CYP2D6 (Homo sapiens, UniProt P10635); conditions: microsomes, 10 µM
CYP2C9 [9] = target: T6, CYP2C9; experiment: in vitro; conditions: microsomes
CYP2C8 [10] = target: T5, CYP2C8; experiment: in vitro; conditions: microsomes
[11] = Rat liver microsomal intrinsic clearance; format: in vitro ADME; conditions: rat liver microsomes
CYP2D6 [12] = target: T7, CYP2D6; experiment: in vitro; conditions: microsomes
CYP2B6 [13] = target: T3, CYP2B6; experiment: in vitro; conditions: microsomes
CYP1A2 = target: T8, CYP1A2 (Homo sapiens, UniProt P05177); experiment: Human liver microsomes P450 inhibition, CYP1A2
T8 sequence (P05177 1-516): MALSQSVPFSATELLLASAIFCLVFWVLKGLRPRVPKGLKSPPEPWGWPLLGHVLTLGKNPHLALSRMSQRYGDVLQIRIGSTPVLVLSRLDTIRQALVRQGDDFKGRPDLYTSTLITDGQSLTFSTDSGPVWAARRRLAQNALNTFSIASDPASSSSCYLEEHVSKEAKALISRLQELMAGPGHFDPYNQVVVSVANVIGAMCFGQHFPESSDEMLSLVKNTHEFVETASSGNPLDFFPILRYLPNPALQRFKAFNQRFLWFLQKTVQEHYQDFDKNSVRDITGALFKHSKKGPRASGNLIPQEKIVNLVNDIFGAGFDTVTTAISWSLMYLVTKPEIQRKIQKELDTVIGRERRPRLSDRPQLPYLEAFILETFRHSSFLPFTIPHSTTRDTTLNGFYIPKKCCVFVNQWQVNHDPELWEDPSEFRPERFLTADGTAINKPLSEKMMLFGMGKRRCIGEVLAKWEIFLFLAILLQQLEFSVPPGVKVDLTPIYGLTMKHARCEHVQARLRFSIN

T2 sequence (P08684 whole entry): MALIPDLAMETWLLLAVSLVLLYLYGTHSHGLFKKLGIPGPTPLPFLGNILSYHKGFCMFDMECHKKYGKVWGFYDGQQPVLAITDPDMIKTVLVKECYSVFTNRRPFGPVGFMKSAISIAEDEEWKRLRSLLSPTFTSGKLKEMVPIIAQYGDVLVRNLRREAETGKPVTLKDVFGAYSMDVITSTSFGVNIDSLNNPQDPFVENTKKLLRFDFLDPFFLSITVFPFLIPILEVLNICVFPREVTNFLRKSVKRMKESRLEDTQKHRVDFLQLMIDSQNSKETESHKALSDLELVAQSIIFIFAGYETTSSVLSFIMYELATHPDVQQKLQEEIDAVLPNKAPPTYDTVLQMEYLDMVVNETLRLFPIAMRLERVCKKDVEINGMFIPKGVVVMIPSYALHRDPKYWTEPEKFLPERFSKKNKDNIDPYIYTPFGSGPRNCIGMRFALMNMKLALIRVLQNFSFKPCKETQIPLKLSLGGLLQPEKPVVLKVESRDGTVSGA
T6 sequence (P11712 whole entry): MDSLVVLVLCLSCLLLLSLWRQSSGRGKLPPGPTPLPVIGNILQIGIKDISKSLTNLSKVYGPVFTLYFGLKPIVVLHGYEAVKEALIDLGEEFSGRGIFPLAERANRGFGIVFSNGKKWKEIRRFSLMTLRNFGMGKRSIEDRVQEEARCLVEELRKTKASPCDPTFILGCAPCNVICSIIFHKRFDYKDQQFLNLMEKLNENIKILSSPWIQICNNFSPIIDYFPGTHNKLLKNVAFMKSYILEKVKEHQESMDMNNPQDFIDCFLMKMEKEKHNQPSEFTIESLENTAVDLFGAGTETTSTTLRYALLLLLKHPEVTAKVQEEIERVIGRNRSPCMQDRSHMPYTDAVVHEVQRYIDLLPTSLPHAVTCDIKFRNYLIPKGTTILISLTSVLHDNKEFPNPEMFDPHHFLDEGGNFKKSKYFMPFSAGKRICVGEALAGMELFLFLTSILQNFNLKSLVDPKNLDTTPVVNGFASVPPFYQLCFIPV
T1 sequence (P33261 whole entry): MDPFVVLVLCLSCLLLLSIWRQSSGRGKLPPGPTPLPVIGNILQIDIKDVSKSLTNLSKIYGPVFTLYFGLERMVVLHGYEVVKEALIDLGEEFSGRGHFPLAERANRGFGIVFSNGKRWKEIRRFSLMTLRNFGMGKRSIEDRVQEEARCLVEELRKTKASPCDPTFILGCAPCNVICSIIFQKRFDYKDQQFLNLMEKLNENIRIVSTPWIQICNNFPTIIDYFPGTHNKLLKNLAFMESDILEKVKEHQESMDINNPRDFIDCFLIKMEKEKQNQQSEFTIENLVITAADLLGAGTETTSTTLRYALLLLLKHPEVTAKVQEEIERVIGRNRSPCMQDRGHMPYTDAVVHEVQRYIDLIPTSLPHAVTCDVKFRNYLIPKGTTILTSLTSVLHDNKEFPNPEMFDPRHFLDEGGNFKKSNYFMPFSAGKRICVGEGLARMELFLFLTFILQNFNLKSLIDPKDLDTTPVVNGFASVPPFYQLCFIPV
T7 sequence (P10635 whole entry): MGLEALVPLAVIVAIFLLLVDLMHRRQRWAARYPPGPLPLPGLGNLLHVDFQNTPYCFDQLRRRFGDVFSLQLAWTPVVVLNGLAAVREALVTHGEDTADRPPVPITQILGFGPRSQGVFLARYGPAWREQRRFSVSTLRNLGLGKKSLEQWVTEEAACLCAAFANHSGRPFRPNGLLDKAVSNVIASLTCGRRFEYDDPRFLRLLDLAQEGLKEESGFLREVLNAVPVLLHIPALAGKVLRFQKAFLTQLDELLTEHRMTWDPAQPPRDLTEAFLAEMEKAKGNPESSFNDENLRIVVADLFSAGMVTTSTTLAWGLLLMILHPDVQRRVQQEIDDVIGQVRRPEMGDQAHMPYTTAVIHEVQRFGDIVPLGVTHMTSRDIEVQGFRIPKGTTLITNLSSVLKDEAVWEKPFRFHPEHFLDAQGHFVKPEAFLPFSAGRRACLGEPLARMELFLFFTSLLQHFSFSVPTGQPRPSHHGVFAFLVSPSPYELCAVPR

With `CCCCCCCC/C=C\CCCCCCCC(=O)NC(CO)(CO)CO` [Compound 13, N-(1,3-dihydroxy-2-(hydroxymethyl)propan-2-yl)] the inhibition at 10 µM (CYP2C19 [1]) was under 20%, the inhibition at 10 µM (CYP3A4 [2]) was under 20% and the “Inhibitory % CYP2C19” value (CYP2C19 [3]) was 18.34%. For the same molecule, the “Inhibitory % CYP2B6” value (CYP2B6 [4]) was 53.31%, the inhibition at 10 µM (5-HT3) was 5.63% and the PappB→A (hMDRI-MDCKII cells; With Pgp inhibitor) was “PappB→A = 4.77 × 10^−6 cm/s”. For the same molecule, the PappB→A (hMDRI-MDCKII cells; Without Pgp inhibitor) was “PappB→A = 3.23 × 10^−6 cm/s”, the “Inhibitory % CYP3A4 (midazolam)” value (CYP3A4 [5]) was 18.72% and the “Inhibitory % CYP2C8” value (CYP2C8 [6]) was 11.87%. The “Inhibitory % CYP2C9” value (CYP2C9 [7]) was 21.2%, the “Inhibitory % CYP2D6” value (CYP2D6 [8]) was 10.13% and the inhibition at 10 µM (CYP2C9 [9]) was under 20%. The inhibition at 10 µM (CYP2C8 [10]) was under 20%, the “Liver microsomal clearance CLR” value [11] was “CLR = 174.66 μL/min/mg” and the inhibition at 10 µM (CYP2D6 [12]) was under 20%. For the same molecule, the inhibition at 10 µM (CYP2B6 [13]) was over 50%, the “Inhibitory % CYP1A2” value (CYP1A2; 10 μM, human liver microsomes) was 3.4% and the inhibition at 10 µM (CYP1A2; human, microsomes) was under 20%.

Reference: US20250230125A1 (The Board of Regents of The University of Texas System, priority 2022, published 2025)
